Experimental data as given in patent US11787825B2 (priority 2021, dated 2023).
Values after ≈ are worked out from the molar mass of the structure shown. Where two headings read alike, the source gives them in different places. Marks after values point to notes of the source that are not given here.

Tests used:
[1] = Beagle, in vivo, po; for Dog F % (suspension): pH 2
physchem = details: 25 °C, thermodynamic from solid
[2] = 0.1N HCL, 1.0% DMSO, 24-hour incubation at ambient temperature, maximum theoretical compound concentration 100 μM
[3] = 1×PBS buffer (pH 7.4), 1.0% DMSO, 24-hour incubation at ambient temperature, maximum theoretical compound concentration 100 μM

Row | SMILES | pH 2 solubility [2] | pH 7 solubility [3] | Dog F % (suspension) [1] | solubility (physchem; fassif) | also measured
1 | CC(C)(CC(=O)N(c1nn(CC(F)(F)F)c2c(-c3ccc(C#CC(C)(C)S(C)(=O)=O)nc3[C@H](Cc3cc(F)cc(F)c3)NC(=O)Cn3nc(C(F)(F)F)c4c3C(F)(F)[C@@H]3C[C@H]43)ccc(Cl)c12)S(C)(=O)=O)CN(CC(=O)O)C(=O)OCOP(=O)(O)O [Compound 42, N-(4-(N-(4-chloro-7-(2-((S)-1-(2-((3bS,4aR)-5,5-difluoro (trifluoromethyl)-3b,4,4a,5-tetrahydro-1H-cyclopropa[3,4]cyclopenta[1,2-c]pyrazolyl)acetamido)-2-(3,5-difluorophenyl)ethyl)-6-(3-methyl-3-(methylsulfonyl)but-1-ynyl)pyridin-3-yl)-1-(2,2,2-trifluoroethyl)-1H-indazol-3-yl)methylsulfonamido)-2,2-dimethyl-4-oxobutyl)-N-(((phosphonooxy)methoxy)carbonyl)glycine] | 1 μM | 100 μM | 9% |  | 
2 | Cc1cc(C)c(C(C)(C)CC(=O)N(c2nn(CC(F)(F)F)c3c(-c4ccc(C#CC(C)(C)S(C)(=O)=O)nc4[C@H](Cc4cc(F)cc(F)c4)NC(=O)Cn4nc(C(F)(F)F)c5c4C(F)(F)[C@@H]4C[C@H]54)ccc(Cl)c23)S(C)(=O)=O)c(OP(=O)(O)O)c1 [Compound 48, 2-(4-(N-(4-chloro-7-(2-((S)-1-(2-03bS,4aR)-5,5-difluoro (trifluoromethyl)-3b,4,4a,5-tetrahydro-1H-cyclopropa[3,4]cyclopenta[1,2-c]pyrazolyl)acetamido)-2-(3,5-difluorophenyl)ethyl)-6-(3-methyl-3-(methylsulfonyl)but-1-ynyl)pyridin-3-yl)-1-(2,2,2-trifluoroethyl)-1H-indazol-3-yl)methylsulfonamido)-2-methyl oxobutan-2-yl)-3,5-dimethylphenyl dihydrogen phosphate] |  |  | 16% | 777 µg/mL | Dog F % (solution) [1]: 60^b %; solubility (physchem; fessif): 948 µg/mL
3 | Cc1cc(CC(=O)N[C@@H](CC(=O)O)C(=O)O)c(C(C)(C)CC(=O)N(c2nn(CC(F)(F)F)c3c(-c4ccc(C#CC(C)(C)S(C)(=O)=O)nc4[C@H](Cc4cc(F)cc(F)c4)NC(=O)Cn4nc(C(F)(F)F)c5c4C(F)(F)[C@@H]4C[C@H]54)ccc(Cl)c23)S(C)(=O)=O)c(OP(=O)(O)O)c1 [Compound 59, (2-(2-(4-(N-(4-chloro-7-(2-((S)-1-(2-((3bS,4aR)-5,5-difluoro-3-(trifluoromethyl)-3b,4,4a,5-tetrahydro-1H-cyclopropa[3,4]cyclopenta[1,2-c]pyrazolyl)acetamido)-2-(3,5-difluorophenyl)ethyl)-6-(3-methyl-3-(methylsulfonyl)but-1-ynyl)pyridin-3-yl)-1-(2,2,2-trifluoroethyl)-1H-indazol-3-yl)methylsulfonamido)-2-methyloxobutan-2-yl)-5-methyl-3-(phosphonooxy)phenyl)acetyl)-L-aspartic acid] |  |  |  |  | Dog F % (solution) [1]: 27 ^c %
4 | CC(C)(C#Cc1ccc(-c2ccc(Cl)c3c(N(C(=O)/C=C/C(=O)N(CCC(=O)O)[C@@H](CC(=O)O)C(=O)O)S(C)(=O)=O)nn(CC(F)(F)F)c23)c([C@H](Cc2cc(F)cc(F)c2)NC(=O)Cn2nc(C(F)(F)F)c3c2C(F)(F)[C@@H]2C[C@H]32)n1)S(C)(=O)=O [Compound 3, N-(2-carboxyethyl)-N—((E)-4-(N-(4-chloro-7-(2-((S)-1-(2-((3bS,4aR)-5,5-difluoro-3-(trifluoromethyl)-3b,4,4a,5-tetrahydro-111-cyclopropa[3,4]cyclopenta[1,2-c]pyrazol-1-yl)acetamido)-2-(3,5-difluorophenyl)ethyl)-6-(3-methyl-3-(methylsulfonyl)but-1-yn-1-yl)pyridin-3-yl)-1-(2,2,2-trifluoroethyl)-1H-indazol-3-yl)methylsulfonamido)-4-oxobut-2-enoyl)-L-aspartic acid] |  |  | 10% |  | 
5 | CC(C)(C#Cc1ccc(-c2ccc(Cl)c3c(N(C(=O)CCCN(C(=O)OCOP(=O)(O)O)[C@H](C(=O)O)c4ccccc4)S(C)(=O)=O)nn(CC(F)(F)F)c23)c([C@H](Cc2cc(F)cc(F)c2)NC(=O)Cn2nc(C(F)(F)F)c3c2C(F)(F)[C@@H]2C[C@H]32)n1)S(C)(=O)=O [Compound 40] | 1 μM | 100 μM | 5% |  | 
6 | CC(C)(C#Cc1ccc(-c2ccc(Cl)c3c(N(C(=O)CCC(CC(=O)O)NC(=O)OCOP(=O)(O)O)S(C)(=O)=O)nn(CC(F)(F)F)c23)c([C@H](Cc2cc(F)cc(F)c2)NC(=O)Cn2nc(C(F)(F)F)c3c2C(F)(F)[C@@H]2C[C@H]32)n1)S(C)(=O)=O (stereo in doubt) [Compound 34, (R)-6-(N-(4-chloro-7-(2-((S)-1-(2-((3bS,4aR)-5,5-difluoro-3-(trifluoromethyl)-3b,4,4a,5-tetrahydro-1H-cyclopropa[3,4]cyclopenta[1,2-c]pyrazol-1-yl)acetamido)-2-(3,5-difluorophenyl)ethyl)-6-(3-methyl-3-(methylsulfonyl)but-1-yn-1-yl)pyridin-3-yl)-1-(2,2,2-trifluoroethyl)-1H-indazol-3-yl)methylsulfonamido)-6-oxo-3-((((phosphonooxy)methoxy)carbonyl)amino)hexanoic acid] | 3 μM | 75 μM |  |  | solubility (physchem; fasted state simulated intestinal fluid (FaSSIF), fassif): > 2840 µg/mL; solubility (physchem; fed state simulated intestinal fluid (FeSSIF), fessif): 454 µg/mL (≈ 359 µM)
7 | Cc1cc(C(=O)N[C@@H](CC(=O)O)C(=O)O)cc(OP(=O)(O)O)c1C(C)(C)CC(=O)N(c1nn(CC(F)(F)F)c2c(-c3ccc(C#CC(C)(C)S(C)(=O)=O)nc3[C@H](Cc3cc(F)cc(F)c3)NC(=O)Cn3nc(C(F)(F)F)c4c3C(F)(F)[C@@H]3C[C@H]43)ccc(Cl)c12)S(C)(=O)=O [Compound 65, (4-(4-(N-(4-chloro-7-(2-((S)-1-(2-((3bS,4aR)-5,5-difluoro-3-(trifluoromethyl)-3b,4,4a,5-tetrahydro-1H-cyclopropa[3,4]cyclopenta[1,2-c]pyrazol-1-yl)acetamido)-2-(3,5-difluorophenyl)ethyl)-6-(3-methyl-3-(methylsulfonyl)but-1-yn-1-yl)pyridin-3-yl)-1-(2,2,2-trifluoroethyl)-1H-indazol-3-yl)methylsulfonamido)-2-methyl-4-oxobutan-2-yl)-3-methyl-5-(phosphonooxy)benzoyl)-L-aspartic acid] |  |  |  | 1100 µg/mL (≈ 787 µM) | pH 2 solubility (pH 2): 7/68 μM; pH 7 solubility (pH 7.4): 7/68 μM
8 | CN(C(=O)N(c1nn(CC(F)(F)F)c2c(-c3ccc(C#CC(C)(C)S(C)(=O)=O)nc3[C@H](Cc3cc(F)cc(F)c3)NC(=O)Cn3nc(C(F)(F)F)c4c3C(F)(F)[C@@H]3C[C@H]43)ccc(Cl)c12)S(C)(=O)=O)c1ccccc1OP(=O)(O)O [Compound 54, 2-(3-(4-chloro-7-(2-((S)-1-(2-((3bS,4aR)-5,5-difluoro-3-(trifluoromethyl)-3b,4,4a,5-tetrahydro-1H-cyclopropa[3,4]cyclopenta[1,2-c]pyrazol-1-yl)acetamido)-2-(3,5-difluorophenyl)ethyl)-6-(3-methyl-3-(methylsulfonyl)but-1-yn-1-yl)pyridin-3-yl)-1-(2,2,2-trifluoroethyl)-1H-indazol-3-yl)-1-methyl-3-(methylsulfonyl)ureido)phenyl dihydrogen phosphate] |  |  |  | 1090 µg/mL | pH 2 solubility (pH 2): 1/63 μM; pH 7 solubility (pH 7.4): 1/63 μM; solubility (physchem; fessif): 561 µg/mL
